Experimental data as given in patent publication USRE40086E1, “Method for treating bacterial infection with novel 7-substituted-9-substituted amino 6-demethyl-6-deoxytetracyclines” (Wyeth Holdings Corporation, priority 1991, dated 2008).
Structures can show the parent of a compound that is named as a salt. Where two headings read alike, the source gives them in different places.

Experiments:
[1] = system: S. aureus UBMS 88-5 (tetM); experiment: MIC, agar dilution; assay type: cell-based; conditions: for MIC: S. aureus UBMS 88-5 (tetM)
[2] = system: S. aureus UBMS 88-4 (Sensitive); experiment: MIC, agar dilution; assay type: cell-based
[3] = system: S. aureus UBMS 90-1 (tetM); experiment: MIC, agar dilution; assay type: cell-based; conditions: for MIC: S. aureus UBMS 90-1 (tetM)
[4] = system: S. aureus UBMS 90-2 (tetM); experiment: MIC, agar dilution; assay type: cell-based; conditions: for MIC: S. aureus UBMS 90-2 (tetM)
[5] = system: S. aureus UBMS 90-3 (Sensitive); experiment: MIC, agar dilution; assay type: cell-based
[6] = system: S. aureus UBMS 88-7 (tetK); experiment: MIC, agar dilution; assay type: cell-based
[7] = system: S. aureus ATCC 29213 (Sensitive); experiment: MIC, agar dilution; assay type: cell-based
[8] = system: S. haemolyticus AVAH 88-3; experiment: MIC, agar dilution; assay type: cell-based
[9] = system: E. faecalis 12201; experiment: MIC, agar dilution; assay type: cell-based
[10] = system: E. faecalis ATCC 29212; experiment: MIC, agar dilution; assay type: cell-based; conditions: E. faecalis ATCC 29212
[11] = system: E. coli UBMS 88-1 (tetB); experiment: MIC, agar dilution; assay type: cell-based; conditions: for MIC: E. coli UBMS 88-1 (tetB)
[12] = system: E. coli UBMS 89-1 (tetM); experiment: MIC, agar dilution; assay type: cell-based
[13] = system: E. coli UBMS 89-2 (Sensitive); experiment: MIC, agar dilution; assay type: cell-based
[14] = system: E. coli ATCC 25922; experiment: MIC, agar dilution; assay type: cell-based
[15] = system: E. coli UBMS 90-4 (tetM); experiment: MIC, agar dilution; assay type: cell-based
[16] = system: Staphylococcus aureus, methicillin-resistant; experiment: MIC vs recent clinical and agricultural isolates (Table V, KK); assay type: cell-based; conditions: [15] tested
[17] = system: Staphylococcus aureus, methicillin-susceptible; experiment: as above; assay type: cell-based; conditions: [15] tested
[18] = system: Staphylococcus Coagulase-negative, methicillin-susceptible; experiment: as above; assay type: cell-based; conditions: [16] tested
[19] = system: Enterococcus faecalis; experiment: as above; assay type: cell-based; conditions: [10] tested
[20] = system: Enterococcus faecium; experiment: as above; assay type: cell-based; conditions: [10] tested
[21] = system: Enterococcus spp. Vancomycin-resistant; experiment: as above; assay type: cell-based; conditions: [8] tested
[22] = system: Streptococcus pyogenes; experiment: as above; assay type: cell-based; conditions: [10] tested
[23] = system: Streptococcus agalactiae; experiment: as above; assay type: cell-based; conditions: [10] tested
[24] = system: Streptococcus pneumoniae; experiment: as above; assay type: cell-based; conditions: [10] tested
[25] = system: Escherichia coli (Clinical); experiment: as above; assay type: cell-based; conditions: [30] tested
[26] = system: Escherichia coli (Agricultural); experiment: as above; assay type: cell-based; conditions: [15] tested
[27] = system: Shigella spp.; assay type: cell-based; conditions: [14] tested
[28] = system: Kiebsiella pneumoniae; experiment: MIC vs recent clinical and agricultural isolates (Table V, KK); assay type: cell-based; conditions: [10] tested
[29] = system: Klebsiella oxytoca; experiment: as above; assay type: cell-based; conditions: [10] tested
[30] = system: Citrobacter diversus; experiment: as above; assay type: cell-based; conditions: [10] tested
[31] = system: Serratia mercescens; experiment: as above; assay type: cell-based; conditions: [10] tested
[32] = system: Enterobacter aerogenes; experiment: as above; assay type: cell-based; conditions: [10] tested
[33] = system: Proteus mirabilis; experiment: as above; assay type: cell-based; conditions: [26] tested
[34] = system: Proteus vulgaris; experiment: as above; assay type: cell-based; conditions: [18] tested
[35] = system: Morganella morganii; experiment: as above; assay type: cell-based; conditions: [16] tested
[36] = system: Pseudomonas aeruginosa; experiment: as above; assay type: cell-based; conditions: [10] tested
[37] = system: Neisseria gonorrhoeae; experiment: as above; assay type: cell-based; conditions: [14] tested
[38] = system: Haemophilus influenzae; experiment: as above; assay type: cell-based; conditions: [15] tested
[39] = system: Bordetella bronchiseptica (Agricultural); experiment: as above; assay type: cell-based; conditions: [10] tested
[40] = system: Bacteroides spp.; experiment: as above; assay type: cell-based; conditions: [9] tested
[41] = system: Clostridium difficile; experiment: as above; assay type: cell-based; conditions: [12] tested
[42] = system: Clostridium perfringens; assay type: cell-based; conditions: [16] tested
[43] = system: S. aureus SMITH (sens); experiment: In vivo antibacterial evaluation, acute lethal infection in mice
Description: In Vivo Antibacterial Evaluation (Table VII)

[44] = system: Escherichia coli UBMS 90-4 (Tet-M); experiment: as above

SMILES: CN(C)c1ccc(O)c2c1C[C@H]1C[C@H]3[C@H](N(C)C)C(O)=C(C(N)=O)C(=O)[C@@]3(O)C(O)=C1C2=O [Compound O, 7-(Dimethylamino)-6-demethyl-6-deoxytetracycline hydrochloride (minocycline hydrochloride), reference compound]
- MIC ([1]; hydrochloride): 4 µg/mL
- MIC ([1]; Staphylococcus aureus): 2 µg/mL
- MIC ([2]; Staphylococcus aureus, S. aureus UBMS 88-4 (Sensitive), read-out: MIC): ≤ 0.015 µg/mL
- MIC ([3]; hydrochloride): 2 µg/mL
- MIC ([3]; Staphylococcus aureus): 4 µg/mL
- MIC ([4]; hydrochloride): 1 µg/mL
- MIC ([4]; Staphylococcus aureus): 2 µg/mL
- MIC ([5]; Staphylococcus aureus, S. aureus UBMS 90-3 (Sensitive), read-out: MIC): ≤ 0.015 µg/mL
- MIC ([6]; Staphylococcus aureus): 0.06 µg/mL
- MIC ([7]; Staphylococcus aureus, ATCC29213, S. aureus ATCC 29213 (Sensitive), read-out: MIC): ≤ 0.015 µg/mL
- MIC ([8]; S. haemolyticus AVAH 88-3, hydrochloride): 0.06 µg/mL
- MIC ([8]; Staphylococcus haemolyticus, AVAH883, S. haemolyticus AVAH 88-3, read-out: MIC): 0.03 µg/mL
- MIC ([9]; E. faecalis 12201, hydrochloride): 8 µg/mL
- MIC ([9]; Enterococcus faecalis, 12201, E. faecalis 12201, read-out: MIC): 4 µg/mL
- MIC ([10]; Enterococcus faecalis, ATCC29212, read-out: MIC): 0.5 µg/mL
- MIC ([11]; hydrochloride): 16 µg/mL
- MIC ([11]; Escherichia coli): 8 µg/mL
- MIC ([12]; Escherichia coli): 16 µg/mL
- MIC ([13]; Escherichia coli, E. coli UBMS 89-2 (Sensitive), read-out: MIC): 0.5 µg/mL
- MIC ([14]; E. coli ATCC 25922, hydrochloride): 0.5 µg/mL
- MIC ([14]; Escherichia coli, ATCC25922, E. coli ATCC 25922, read-out: MIC): 0.25 µg/mL
- MIC ([15]; Escherichia coli): 64 µg/mL
- MIC (range over isolates) [16]: 0.06 to 4 µg/mL
- MIC (range over isolates) [17]: 0.03 to 0.12 µg/mL
- MIC (range over isolates) [18]: 0.03 to 1 µg/mL
- MIC (range over isolates) [19]: 0.03 to 16 µg/mL
- MIC (range over isolates) [20]: 0.03 to 16 µg/mL
- MIC (range over isolates) [21]: 0.03 to 16 µg/mL
- MIC (range over isolates) [22]: 0.03 to 2 µg/mL
- MIC (range over isolates) [23]: 0.12 to 16 µg/mL
- MIC (range over isolates) [24]: 0.06 to 0.5 µg/mL
- MIC (range over isolates) [25]: 0.25 to 32 µg/mL
- MIC (range over isolates) [26]: 1 to 16 µg/mL
- MIC (range over isolates) [27]: 0.25 to 8 µg/mL
- MIC (range over isolates) [28]: 0.5 to 8 µg/mL
- MIC (range over isolates) [29]: 0.5 to 4 µg/mL
- MIC (range over isolates) [30]: 0.25 to 4 µg/mL
- MIC (range over isolates) [31]: 1 to 8 µg/mL
- MIC (range over isolates) [32]: 0.5 to 1 µg/mL
- MIC (range over isolates) [33]: 1 to 32 µg/mL
- MIC (range over isolates) [34]: 0.5 to 16 µg/mL
- MIC (range over isolates) [35]: 0.25 to 32 µg/mL
- MIC (range over isolates) [36]: 1 to 16 µg/mL
- MIC (range over isolates) [37]: 0.5 to 64 µg/mL
- MIC (range over isolates) [38]: 0.5 to 2 µg/mL
- MIC (range over isolates) [39]: 0.06 to 0.12 µg/mL
- MIC (range over isolates) [40]: 0.03 to 16 µg/mL
- MIC (range over isolates) [41]: 0.015 to 16 µg/mL
- MIC (range over isolates) [42]: >0.008 to 16 µg/mL
- ED50 ([43]; Staphylococcus aureus, Oral, read-out: ED50): 0.74 mg/kg
- ED50 ([43]; Staphylococcus aureus, iv, Intraveneous, read-out: ED50): 0.37 mg/kg
- ED50 ([44]; Escherichia coli, in Mus musculus, iv): > 32 mg/kg

SMILES: CN(C)CC(=O)Nc1cc(N(C)C)c2c(c1O)C(=O)C1=C(O)[C@]3(O)C(=O)C(C(N)=O)=C(O)[C@@H](N(C)C)C3CC1C2.Cl.Cl (stereo partly drawn) [KK, [4S-(4alpha,12aalpha)]-4,7-Bis(dimethylamino)-9-[[(dimethylamino)acetyl]amino]-1,4,4a,5,5a,6,11,12a-octahydro-3,10,12,12a-tetrahydroxy-1,11-dioxo-2-naphthacenecarboxamide dihydrochloride]
- Antibacterial activity (MIC) ([1]; S. aureus UBMS 88-5 TetM, Table IA, unit assumed): 0.25 µg/mL
- Antibacterial activity (MIC) ([2]; S. aureus UBMS 88-4, Table IA, unit assumed): 0.12 µg/mL
- Antibacterial activity (MIC) ([3]; S. aureus UBMS 90-1 TetM, Table IA, unit assumed): 0.25 µg/mL
- Antibacterial activity (MIC) ([4]; S. aureus UBMS 90-2 TetM, Table IA, unit assumed): 0.12 µg/mL
- Antibacterial activity (MIC) ([5]; S. aureus UBMS 90-3, Table IA, unit assumed): 0.03 µg/mL
- Antibacterial activity (MIC) ([6]; S. aureus UBMS 88-7 TetK, Table IA, unit assumed): 0.25 µg/mL
- Antibacterial activity (MIC) ([7]; S. aureus ATCC 29213, Table IA): ≦0.015
- Antibacterial activity (MIC) ([8]; S. hemolyticus AVHAH 88-3, Table IA, unit assumed): 0.12 µg/mL
- Antibacterial activity (MIC) ([9]; Enterococcus 12201, Table IA, unit assumed): 0.12 µg/mL
- Antibacterial activity (MIC) ([10]; Table IA, unit assumed): 0.06 µg/mL
- Antibacterial activity (MIC) ([11]; E. coli UBMS 88-1 TetB, Table IA, unit assumed): 0.25 µg/mL
- Antibacterial activity (MIC) ([12]; E. coli UBMS 89-1 TetM, Table IA, unit assumed): 0.12 µg/mL
- Antibacterial activity (MIC) ([13]; E. coli UBMS 89-2 Tet Sens., Table IA, unit assumed): 0.25 µg/mL
- Antibacterial activity (MIC) ([14]; E. coli ATCC 25922, Table IA, unit assumed): 0.25 µg/mL
- Antibacterial activity (MIC) ([15]; E. coli UBMS 90-4 TetM, Table IA, unit assumed): 0.25 µg/mL
- MIC (range over isolates) [16]: 0.12 to 2 µg/mL
- MIC (range over isolates) [17]: 0.12 to 0.25 µg/mL
- MIC (range over isolates) [18]: 0.12 to 8 µg/mL
- MIC (range over isolates) [19]: 0.015 to 0.12 µg/mL
- MIC (range over isolates) [20]: 0.03 to 0.12 µg/mL
- MIC (range over isolates) [21]: 0.015 to 0.06 µg/mL
- MIC (range over isolates) [22]: 0.06 to 0.12 µg/mL
- MIC (range over isolates) [23]: 0.06 to 0.25 µg/mL
- MIC (range over isolates) [24]: 0.03 to 0.25 µg/mL
- MIC (range over isolates) [25]: 0.12 to 4 µg/mL
- MIC (range over isolates) [26]: 0.12 to 4 µg/mL
- MIC (range over isolates) [27]: 0.06 to 0.5 µg/mL
- MIC (range over isolates) [28]: 0.25 to 8 µg/mL
- MIC (range over isolates) [29]: 0.5 to 1 µg/mL
- MIC (range over isolates) [30]: 0.25 to 1 µg/mL
- MIC (range over isolates) [31]: 2 to 8 µg/mL
- MIC (range over isolates) [32]: 0.5 to 1 µg/mL
- MIC (range over isolates) [33]: 1 to 32 µg/mL
- MIC (range over isolates) [34]: 0.5 to 4 µg/mL
- MIC (range over isolates) [35]: 0.5 to 4 µg/mL
- MIC (range over isolates) [36]: 1 to 16 µg/mL
- MIC (range over isolates) [37]: 0.25 to 1 µg/mL
- MIC (range over isolates) [38]: 0.5 to 2 µg/mL
- MIC (range over isolates) [39]: 0.12 µg/mL
- MIC (range over isolates) [40]: 0.03 to 1 µg/mL
- MIC (range over isolates) [41]: 0.03 µg/mL
- MIC (range over isolates) [42]: 0.03 to 1 µg/mL
- ED50 ([43]; Oral): 8 to 16 mg/kg
- ED50 ([44]; mice, Escherichia coli UBMS 90-4 (Tet-M), Intraveneous): 2.49 mg/kg
